These results are taken from patent publication US20230034584A1, “INHIBITORS OF SHP2” (Bayer Aktiengesellschaft, priority 2019, published 2023).

In one data set the test system is 20 other PTPs. To be noted: literature value; cited from earlier work.
In the next data set the test system is MRL/lpr mice. To be noted: MRL/lpr mice treated with the SHP2 inhibitor; cited from earlier work.
A further data set can be described thus: log D. It counts as physicochemical.
Data set [1] relates to ERK1/2 Thr202/Tyr204-phosphorylation in human renal proximal tubular epithelial cells (RPTEC). Briefly: Phospho-ERK cellular assay (HTRF). It is filed as cell-based. To be noted: read-out: IC50, inhibition of ERK phosphorylation. Here is the method:
Cellular pERK assay was used to determine compound activity on modulating ERK1/2 Thr202/Tyr204-phosphorylation in renal cells. […] The intracellular levels of ERK1/2 phosphorylated at Thr202/Tyr204 were quantified with Advanced Phospho-ERK HTRF assay (Cisbio, Cat. #64AERPEH). Compound incubation was terminated by addition of 16 μL lysis buffer (Cisbio) and 4 μL pERK HTRF® antibody cocktail (Cisbio).

For data set [2], the system named is C57/Bl6J mice with UUO. Briefly: UUO mouse model, macrophage infiltration by flow cytometry (CD45, F4/80). It is filed as in vivo. To be noted: 1 and 10 mg/kg once daily p.o. As for the experimental part: Experiments indicative for chronic kidney diseases were carried out in unilateral ureteral obstruction (UUO) mouse models (examples 1). Such treatment results in the short version of the UUO model (3 days) in pronounced macrophage infiltration into the affected kidney, which is one of the triggers for the subsequent interstitial fibrosis and nephron damage. Collagen expression is increased in UUO after 10 days as a result of renal fibrosis, while alpha-smooth muscle actin (ASMA) expression is increased as a result of reduced renal function, or fibroblast expansion (see Chevalier et al, 2009).
(§1) The study was performed on male C57/Bl6J mice (age: 7-8 weeks) that were obtained from Charles River. Mice were anesthetized with continuous inhaled isoflurane, and the left ureter was exposed via a mid-abdominal incision. The mid-ureter was obstructed by two point ligation with silk sutures. The SHAM-operated mouse (n=6) underwent the same procedure except for the obstruction of the left ureter. […] As a placebo, a solution without active ingredient was used (group 2), and a sham operated group with unligated kidney was used as a […] (group 1)
The infiltration of macrophages in response to the renal injury was measured in a flow cytometry assay with detection antibodies binding to the pan-leukocyte marker CD45, as well as to the macrophage-specific antigen. F4/80.

Data set [3] concerns pERK levels in the injured kidneys. Briefly: Phospho-ERK quantification in kidney lysates (HTRF), UUO mice. To be noted: 1 and 10 mg/kg once daily p.o. It is filed as in vivo, mouse. Here is the method: Kidney tissue from animal studies was homogenized in supplemented HTRF lysis buffer (Cisbio). The volume of lysis buffer is adjusted at 1 mL per 100 mg tissue. Homogenization was performed with […] steel beads in Mixer Mill (Retsch, MM300) for 2.5 min/25 Hz, followed by sample cooling on ice. The protein concentration in tissue lysates was adjusted to 0.1-0.5 mg/mL and HTRF pERK assay performed as described above.
as §1

For data set [4], the system named is C57/Bl6J mice with UUO. Put plainly: Unilateral ureteral obstruction (UUO) mouse model, 10 days, fibrosis markers. To be noted: for αSMA-positive area within the obstructed kidney / Collagen content (Sirius Red/Fast Green staining) of obstructed kidney: ten days, histology. It is filed as in vivo. As for the experimental part:
Experiments indicative for chronic kidney diseases were carried out in unilateral ureteral obstruction (UUO) mouse models (examples 1). Such treatment results in the short version of the UUO model (3 days) in pronounced macrophage infiltration into the affected kidney, which is one of the triggers for the subsequent interstitial fibrosis and nephron damage. Collagen expression is increased in UUO after 10 days as a result of renal fibrosis, while alpha-smooth muscle actin (ASMA) expression is increased as a result of reduced renal function, or fibroblast expansion (see Chevalier et al, 2009). The study was performed on male C57/Bl6J mice (age: 7-8 weeks) that were obtained from Charles River. Mice were anesthetized with continuous inhaled isoflurane, and the left ureter was exposed via a mid-abdominal incision. The mid-ureter was obstructed by two point ligation with silk sutures. The SHAM-operated mouse (n=6) underwent the same procedure except for the obstruction of the left ureter. The mice were randomized into four groups (n=10 each group): UUO plus vehicle (10% EtOH/40% PEG/50% water), UUO plus 3 [mg/kg] SHP099, UUO plus 30 [mg/kg] SHP099. Mice were dosed bidaily with vehicle and SHP099. The forth group of mice with UUO was treated once daily with Tivozanib (technical control). At ten days after surgery, mice were euthanized, and kidneys were collected and divided in two parts. One part was snap-frozen in liquid nitrogen for RNA analysis. The other part was stored in Davidson's fixative for the preparation of histological sections. Total RNA was isolated from parts of harvested kidneys. Kidney tissue was homogenized and RNA was obtained and transcribed to cDNA. Using TaqMan real time PCR renal mRNA expression of fibrotic markers was analyzed in kidney tissues. For the assessment of fibrosis on the protein level paraffin tissue sections were stained with alpha-smooth muscle actin (αSMA) and Sirius Red/Fast Green Collagen Stainings using standard procedures. Quantitative measurements of alpha-smooth muscle actin (αSMA)-positive as well as Sirius Red (Collagen) positive areas within the kidneys were obtained by computer image analysis using the Axio Scan Z1 (Zeiss) microscope and the Zen software. All data are expressed as means±S.D. Differences between groups were analyzed by one-way ANOVA with Dunnett's corrections for multiple comparisons. Statistical significance was defined as p<0.05.

Setting [5] is: 3 and 30 mg/kg bidaily, ten days after surgery, TaqMan PCR.
Where [6] appears, read: human proximal tubular epithelial cells (immortalized RPTEC), pERK HTRF.

SMILES strings stand for the structures. Read-outs that look alike come from different tables or passages of the source.

As for `Cn1c(-c2cccc(NC(=O)C(=O)Nc3ccc(-c4ccsc4)cc3)c2)c(I)c2cc(C(=O)O)c(O)cc21` [11a-1], in the data set with 20 other PTPs, the “selectivity against any of 20 other PTPs” value was > 5 fold. Besides, in the data set on MRL/lpr mice, the “progression of kidney disease in SLE-prone mice” value is given as “prevented the progression of kidney disease”.
As to `Cc1nc(N2CCC3(CC2)CO[C@@H](C)[C@H]3N)c(CO)nc1-c1cccc(Cl)c1Cl` [RMC-4550, [3-[(3S,4S)-4-amino-3-methyl-2-oxa-8-azaspiro[4.5]decan-8-yl]-6-(2,3-dichlorophenyl)-5-methylpyrazin-2-yl}methanol], the log distribution coefficient (logD) in the data set “log D” stood at 2.2. For the same molecule, in data set [1] (Homo sapiens, RPTEC), the IC50 was 12.6 nM. In the data set on C57/Bl6J mice with UUO [2], the “macrophage infiltration into the kidney” value is given as “significant, dose-dependent reduction”. The “pERK levels in the injured kidneys” value in data set [3] is “dose-dependently reduced”.
As to `CC1(N)CCN(c2cnc(-c3cccc(Cl)c3Cl)c(N)n2)CC1` [SHP099], the “αSMA-positive area within the obstructed kidney” value in the data set on C57/Bl6J mice with UUO [4] (3 mg/kg bidaily) is reported as “significant reduction”. Besides, in the data set with C57/Bl6J mice with UUO [4] (setting [5]), the “collagen RNA expression in kidney” value is reported as “dose-dependent reduction” and the “αSMA RNA expression in kidney” value is “dose-dependent reduction”. Further, in the data set with C57/Bl6J mice with UUO [4] (both dosages (3 and 30 mg/kg bidaily)), the “Collagen content (Sirius Red/Fast Green staining) of obstructed kidney” value was “dose dependently and significantly reduced”. Besides, in data set [1] (setting [6]), the concentration for half-maximal inhibition (IC50) is 306 nM.
For the molecule `C[C@@H]1OCC2(CCN(c3cnc(Sc4ccnc(N)c4Cl)c(N)n3)CC2)[C@@H]1N` [TNO-155, (3S,4S)-8-(6-amino-5-((2-amino-3-chloropyridin-4-yl)thio)pyrazin-2-yl)-3-methyl-2-oxa-8-azaspiro[4.5]decan-4-amine], the IC50 in data set [1] (setting [6]) came out at 46.4 nM.
In the case of `COc1cc2nccc(Oc3ccc(NC(=O)Nc4cc(C)on4)c(Cl)c3)c2cc1OC` [Tivozanib], in the data set with C57/Bl6J mice with UUO [4] (once daily (technical control)), the “Collagen content (Sirius Red/Fast Green staining) of obstructed kidney” value is “significantly reduced” and the “αSMA-positive area within the obstructed kidney” value was “significantly reduced”.

Broadly, the logD is lipophilicity at a set pH, counting ionised and neutral species. The term IC50 denotes the concentration that gives 50% inhibition.
